In patent US9163025B2, “Stable complexes of an alkaline earth metal salt of N5-methyl-tetrahydrofolic acid and a polyol” (CERBIOS-PHARMA SA, priority 2013, dated 2015):

Test: Accelerated stability of calcium (6S) N5-methyl-tetrahydrofolate products (HPLC related substances and assay)
Type: physicochemical
Conditions: 25° C. and 40% relative humidity
Description: Determination of related substances of calcium (6S)—N^5-methyl-(5,6,7,8)-tetrahydrofolate by HPLC method
25±3 mg of (6S)-5-methyl-tetrahydrofolic acid calcium salt calculated on dry base were placed in a 50 ml volumetric flask and added with 320 μl of acid ascorbic solution and water until the final volume was reached. The solution was transferred in a HPLC vial and the sample injected immediately.
Analysis: 10 μl of the sample solution were Injected, the chromatogram recorded (analytical wavelength 280±16 nm) and the peak response measured.
the liquid chromatograph was equipped with a Hypersil ODS column (length 250 mm, ID 4 mm, particle size 5 μm). The column was coupled with a diode array detector for the detection wavelength of 280±16 nm
Determination of assay by HPLC of calcium (6RS) and (6S) N^5-methyl-tetrahydrofolate
75-85 mg of sample were dissolved in 200 ml water within a 250 ml volumetric flask. 1 ml of the ascorbic acid solution was added and dilute to 250 ml with water. A total of three sample solutions were prepared.
The HPLC system was verified and calibrated by injecting the standard solutions. Once each of the three prepared sample solutions were injected followed by one standard solution as calibration control.
The liquid chromatograph was equipped with an analytical column such ACE 5 C18, 250 mm×2.1 mm, with particle size 5 μm.
acetonitrile 12%, phosphate buffer pH 6.5 80%, methanol+2-mercaptoethanol 8%.
column temperature: 25° C., isocratic mode, flow rate: 0.41 ml/min, injection volume: 5 μl, run time: 13.5 min, analytical wavelength: 290 nm.
The stability of the complexes according to the present invention prepared by spray-drying or lyophilization as described in examples 5 and 7 was tested in comparison with the stability of (6S)—N^5-methyl-tetrahydrofolate calcium salt alone. Preparations obtained through different technologies, such as evaporation of the solvent from the solution, as reported in examples 2, 3 and 4, were also assessed for stability. Accelarated stability experiments at 25° C. and 40% relative humidity were carried out.

Decrease of 5MeTHF % content (4 weeks): −2.70%
Increase of D2 % content (4 weeks): 1.30%
Decrease of 5MeTHF % content (12 weeks): −2.80%
Increase of D2 % content (12 weeks): 1.40%
Decrease of 5MeTHF % content (24 weeks): −5.6%
Increase of D2 % content (24 weeks): 2.3%
Compound: CN1c2c(nc(N)[nH]c2=O)NC[C@@H]1CNc1ccc(C(=O)N[C@@H](CCC(=O)[O-])C(=O)[O-])cc1.[Ca+2] [Product 5MeTHF, (6S)—N^5-methyl-(5,6,7,8)-tetrahydrofolate calcium salt]
